Drawing on patent US11116760B2 (Gilead Sciences, Inc., priority 2018, dated 2021), this text covers EC50 for 30 molecules.

The target in one assay is α4β7 integrin (Homo sapiens (Human), UniProt P13612+P26010). The assay can be described thus: α4β7 Integrin Cell Capture Assay. The format is cell-based. Conditions: RPMI8866 cells captured on MadCAM-1 extracellular domain-coated plate. On the procedure: α4β7 Integrin Cell Capture Assay
α4β7 integrin, sequence (P13612 34-1032): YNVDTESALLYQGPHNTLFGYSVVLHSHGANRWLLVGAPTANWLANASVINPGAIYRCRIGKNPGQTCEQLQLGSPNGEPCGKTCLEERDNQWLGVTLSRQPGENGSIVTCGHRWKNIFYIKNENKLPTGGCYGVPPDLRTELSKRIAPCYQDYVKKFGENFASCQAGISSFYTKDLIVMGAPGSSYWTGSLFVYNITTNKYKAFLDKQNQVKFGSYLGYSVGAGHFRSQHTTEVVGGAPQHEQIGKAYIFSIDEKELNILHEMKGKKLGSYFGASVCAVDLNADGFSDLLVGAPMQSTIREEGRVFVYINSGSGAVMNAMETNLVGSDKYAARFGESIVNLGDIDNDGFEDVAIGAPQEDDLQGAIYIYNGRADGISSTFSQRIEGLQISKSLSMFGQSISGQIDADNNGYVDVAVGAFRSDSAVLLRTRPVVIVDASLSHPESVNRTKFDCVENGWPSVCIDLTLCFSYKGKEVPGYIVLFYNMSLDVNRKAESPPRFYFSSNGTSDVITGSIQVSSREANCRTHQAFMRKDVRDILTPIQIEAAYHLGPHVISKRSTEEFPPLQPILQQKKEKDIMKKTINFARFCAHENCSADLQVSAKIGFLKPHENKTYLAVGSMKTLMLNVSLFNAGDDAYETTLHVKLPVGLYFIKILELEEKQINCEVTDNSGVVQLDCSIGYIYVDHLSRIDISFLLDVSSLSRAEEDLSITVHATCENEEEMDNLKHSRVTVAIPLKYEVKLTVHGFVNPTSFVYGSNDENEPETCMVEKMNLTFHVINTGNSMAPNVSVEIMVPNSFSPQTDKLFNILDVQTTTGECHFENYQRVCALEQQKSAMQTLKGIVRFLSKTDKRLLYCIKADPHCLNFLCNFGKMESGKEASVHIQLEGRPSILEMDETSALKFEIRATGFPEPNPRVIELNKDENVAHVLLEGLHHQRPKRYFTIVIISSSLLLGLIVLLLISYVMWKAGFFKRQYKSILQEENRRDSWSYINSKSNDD
α4β7 integrin, sequence (P26010 20-798): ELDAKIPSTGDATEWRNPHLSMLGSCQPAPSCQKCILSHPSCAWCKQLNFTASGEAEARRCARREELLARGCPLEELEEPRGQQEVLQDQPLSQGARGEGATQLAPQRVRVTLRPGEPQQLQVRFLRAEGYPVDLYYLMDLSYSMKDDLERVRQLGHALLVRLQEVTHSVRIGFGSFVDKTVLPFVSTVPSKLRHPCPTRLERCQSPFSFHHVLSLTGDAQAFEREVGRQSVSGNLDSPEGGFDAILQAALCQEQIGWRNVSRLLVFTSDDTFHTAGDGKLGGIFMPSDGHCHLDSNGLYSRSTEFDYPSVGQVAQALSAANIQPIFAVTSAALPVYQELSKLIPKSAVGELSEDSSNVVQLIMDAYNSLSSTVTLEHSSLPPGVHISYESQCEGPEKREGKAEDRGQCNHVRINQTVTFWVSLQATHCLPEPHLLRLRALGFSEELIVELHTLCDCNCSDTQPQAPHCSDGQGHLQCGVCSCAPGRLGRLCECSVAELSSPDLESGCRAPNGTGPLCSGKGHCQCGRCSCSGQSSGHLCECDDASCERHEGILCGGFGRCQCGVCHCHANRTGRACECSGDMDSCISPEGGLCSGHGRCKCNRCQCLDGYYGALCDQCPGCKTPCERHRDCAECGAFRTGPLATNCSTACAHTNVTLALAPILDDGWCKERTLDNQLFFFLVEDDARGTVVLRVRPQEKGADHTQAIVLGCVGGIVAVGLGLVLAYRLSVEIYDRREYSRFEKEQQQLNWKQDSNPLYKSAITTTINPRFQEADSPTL
The potency of inhibitors in preventing α4β7 integrin interaction with MadCAM-1 was measured by monitoring the capture of α4β7 integrin expressing cells on a recombinant MadCAM-1 extracellular domain-coated plate. […] The plates were then washed with PBS and blocked with 3% BSA for 2 hours before being washed again.
RPM18866 cells were spun down and re-suspended in assay medium (DMEM+0.5% FBS+0.5 mM MnCl2) at a density of 0.5×10^6 cells/mL. […] The plates were incubated at 37° C. for 1 hour. 50 μL of cells were transferred to the blocked, MadCAM-1-coated plates and incubated for 30 minutes at 37° C. […] The plates were incubated for 90 minutes at room temperature. The plates were then washed 3 times with 70 μL of PBS per well and imaged on a Cellomics ArrayScan instrument. The cells that were bound to the plate were counted and plotted against the compound concentration to determine the EC50 of the test compounds.
By EC50 is commonly meant the concentration that produces a half-maximal response. In turn, `CC[C@@H](Nc1cc(C)c(C(=O)N[C@@H](Cc2ccc(-n3c(=O)c4ccncc4n(C)c3=O)c3ncccc23)C(=O)O)c(F)c1)C(F)(F)F` [Example 439] gave an EC50 of 0.049 nM.
The same measure, in the same setting: under `CC[C@@H](Nc1cc(F)c(C(=O)N[C@@H](Cc2ccc(-c3c(C(F)(F)F)n(C)cc(C)c3=O)c3ncccc23)C(=O)O)c(F)c1)C(F)(F)F` [Example 479] stands 1.19 nM; under `CN1CCc2c(cc(-c3ccc(C[C@H](NC(=O)c4c(F)cc(N5CCOC[C@@H]5C(F)(F)F)cc4F)C(=O)O)c4cccnc34)c(=O)n2C)C1` [Example 437], 0.261 nM.
The molecule `Cc1cc(N2CCOC[C@@H]2C(F)(F)F)cc(F)c1C(=O)N[C@@H](Cc1ccc(-c2nc(C)c(C)n(C)c2=O)c2ncc(F)cc12)C(=O)O` [Example 452] had an EC50 of 0.232 nM.
Same read-out and setting: in the case of `COc1cc2c(=O)n(-c3ccc(C[C@H](NC(=O)c4c(C)cc(N5CCOC[C@@H]5C(F)(F)F)cc4F)C(=O)O)c4cccnc34)c(=O)n(C)c2cn1` [Example 429] it was 0.162 nM; in that of `Cc1cc(N2CCOC[C@@H]2C(F)(F)F)cc(F)c1C(=O)N[C@@H](Cc1ccc(-n2c(=O)c3c(cnn3C)n(C)c2=O)c2ncccc12)C(=O)O` [Example 413], 0.529 nM; in that of `Cc1cc(N2CCOC[C@@H]2C(F)(F)F)cc(F)c1C(=O)N[C@@H](Cc1ccc(-c2c(C)c(C(F)(F)F)cn(C)c2=O)c2ncccc12)C(=O)O` [Example 457], 0.238 nM.
Same read-out and setting: in the case of `CCc1cc(N2CCOC[C@@H]2C(F)(F)F)cc(F)c1C(=O)N[C@@H](Cc1ccc(-c2c(C(F)(F)F)cc(C)n(C)c2=O)c2ncccc12)C(=O)O` [Example 471] it was 0.179 nM.

Still in this assay, the particulars now being: Table 1; capture of α4β7 expressing RPM18866 cells on MadCAM-1 extracellular domain-coated plate.
Regarding `Cc1cc(C(F)(F)F)c(-c2ccc(C[C@H](NC(=O)c3c(F)cc(N4CCC[C@@H]4C(F)(F)F)cc3F)C(=O)O)c3cccnc23)c(=O)n1C` [Example 132, (S)-2-(2,6-difluoro-4-((R)-2-(trifluoromethyl)pyrrolidin-1-yl)benzamido)-3-(8-(1,6-dimethyl-2-oxo-4-(trifluoromethyl)-1,2-dihydropyridin-3-yl)quinolin-5-yl)propanoic acid], the EC50 worked out at 1.3 nM.
The same measure, in the same setting: under `CC[C@@H](Nc1cc(F)c(C(=O)N[C@@H](Cc2ccc(-c3c(C(F)(F)F)cc(C)n(C)c3=O)c3ncc(N(C)C)cc23)C(=O)O)c(F)c1)C(F)(F)F` [Example 139, (S)-2-(2,6-difluoro-4-(((R)-1,1,1-trifluorobutan-2-yl)amino)benzamido)-3-(8-(1,6-dimethyl-2-oxo-4-(trifluoromethyl)-1,2-dihydropyridin-3-yl)-3-(dimethylamino)quinolin-5-yl)propanoic acid] stands 11.7 nM; under `CCOCc1cc(OC)c(-c2cc(F)c(C[C@H](NC(=O)c3c(F)cccc3F)C(=O)O)c3cccnc23)c(OC)c1` [Example 39, (S)-2-(2,6-difluorobenzamido)-3-(8-(4-(ethoxymethyl)-2,6-dimethoxyphenyl)-6-fluoroquinolin-5-yl)propanoic acid], 81.6 nM; under `COc1cccc(F)c1C(=O)N[C@@H](Cc1ccc(-c2ccc(C#N)cc2Cl)c2ncccc12)C(=O)O` [Example 23, (S)-3-(8-(2-chloro-4-cyanophenyl)quinolin-5-yl)-2-(2-fluoro-6-methoxybenzamido)propanoic acid], 46.7 nM.
On the same count and under the same terms, in the case of `N#Cc1ccc(-c2ccc(C[C@H](NC(=O)c3c(F)cc(N4CCC[C@@H]4C(F)(F)F)cc3F)C(=O)O)c3cccnc23)c(Cl)c1` [Example 76, (S)-3-(8-(2-chloro-4-cyanophenyl)quinolin-5-yl)-2-(2,6-difluoro-4-((R)-2-(trifluoromethyl)pyrrolidin-1-yl)benzamido)propanoic acid] it was 78.4 nM.
On the same count and under the same terms, in the case of `CC[C@@H](Nc1cc(F)c(C(=O)N[C@@H](Cc2ccc(-c3c(C(F)(F)F)cc(C)n(C)c3=O)c3ncccc23)C(=O)O)c(F)c1)C(F)(F)F` [Example 91, (S)-2-(2,6-difluoro-4-(((R)-1,1,1-trifluorobutan-2-yl)amino)benzamido)-3-(8-(1,6-dimethyl-2-oxo-4-(trifluoromethyl)-1,2-dihydropyridin-3-yl)quinolin-5-yl)propanoic acid] it was 0.3 nM.
For `O=C(N[C@@H](Cc1ccc(-c2c(Cl)cc(F)cc2Cl)c2ncccc12)C(=O)O)c1c(F)cccc1F` [Example 19, (S)-3-(8-(2,6-dichloro-4-fluorophenyl)quinolin-5-yl)-2-(2,6-difluorobenzamido)propanoic acid], a half-maximal effect (EC50) was put at 50 nM.

The same assay, now with this note: Table 2; capture of α4β7 expressing RPM18866 cells on MadCAM-1 extracellular domain-coated plate.
Consider `COc1cc(C)n(C)c(=O)c1-c1ccc(C[C@H](NC(=O)c2c(F)cc(N3CCCC[C@@H]3C(F)(F)F)cc2F)C(=O)O)c2cccnc12` [Example 190], for which the EC50 is 1.2 nM.
The same measure, in the same setting: under `Cc1c(N(C)C)cc(-c2ccc(C[C@H](NC(=O)c3c(F)cc(N4CCOC[C@@H]4C(F)(F)F)cc3F)C(=O)O)c3cccnc23)c(=O)n1C` [Example 259] stands 3.7 nM.
Regarding `CC[C@@H](Nc1cc(F)c(C(=O)N[C@@H](Cc2ccc(-c3cc4ccccc4n(C)c3=O)c3ncccc23)C(=O)O)c(F)c1)C(F)(F)F` [Example 182], the EC50 was 0.9 nM.
In turn, `Cc1nc(-c2ccc(C[C@H](NC(=O)c3c(F)cccc3F)C(=O)O)c3cccnc23)c(C(F)(F)F)c2ccccc12` [Example 318] registered an EC50 of 14.3 nM.
`CC[C@@H](Nc1cc(F)c(C(=O)N[C@@H](Cc2ccc(-c3c(OC)cc(C)n(C)c3=O)c3ncccc23)C(=O)O)c(F)c1)C(F)(F)F` [Example 341] returned an EC50 of 0.6 nM.
Same read-out and setting: in the case of `CC[C@@H](Nc1cc(F)c(C(=O)N[C@@H](Cc2ccc(-c3c(C(F)(F)F)cc(C)n(C)c3=O)c3nc(C(F)(F)F)ccc23)C(=O)O)c(F)c1)C(F)(F)F` [Example 269] it was 4.4 nM; in that of `Cc1cc(C(F)(F)F)c(-c2ccc(C[C@H](NC(=O)c3c(F)cc(N4CCCC[C@@H]4C(F)(F)F)cc3F)C(=O)O)c3cccnc23)c(=O)n1C` (atropisomer, axis not shown) [Example 230], 2.2 nM; in that of `Nc1ccc(C(F)(F)F)c(-c2ccc(C[C@H](NC(=O)c3c(F)cc(N4CCOC[C@@H]4C(F)(F)F)cc3F)C(=O)O)c3cccnc23)n1` [Example 194], 1.4 nM.
Same read-out and setting: in the case of `O=C(N[C@@H](Cc1ccc(Nc2nccc3ccncc23)c2ncccc12)C(=O)O)c1c(Cl)cccc1Cl` [Example 336] it was 26.1 nM.
The same measure, in the same setting: in the case of `CC[C@@H](Nc1cc(F)c(C(=O)N[C@@H](Cc2ccc(-c3c(C(F)(F)F)c4cc(N(C)C)ccc4n(C)c3=O)c3ncccc23)C(=O)O)c(F)c1)C(F)(F)F` (atropisomer, axis not shown) [Example 302] it was 9.4 nM; in that of `CCOCc1cc(OC)c(-c2ccc(C[C@H](NC(=O)c3c(Cl)cc4[nH]c(Cc5ccccc5)cc4c3Cl)C(=O)O)c3cccnc23)c(OC)c1` [Example 297], 7.9 nM; in that of `Cc1ccnc(-c2ccc(C[C@H](NC(=O)c3c(F)cc(N4CCOC[C@@H]4C(F)(F)F)cc3F)C(=O)O)c3cccnc23)c1N(C)C` [Example 212], 1.9 nM.
As for `N#Cc1ccc(-c2ccc(C[C@H](NC(=O)c3c(F)cc(O[C@H](c4ccccc4)C(F)(F)F)cc3F)C(=O)O)c3cccnc23)c(Cl)c1` [Example 175], the EC50 was determined as 97.1 nM.
Still for that read-out and setting: under `CC(O)(c1cc(F)c(C(=O)N[C@@H](Cc2ccc(-c3ccc(C#N)cc3Cl)c3ncccc23)C(=O)O)c(F)c1)C(F)(F)F` (stereo partly drawn) [Example 280] stands 86.1 nM.
The same measure, in the same setting: under `COc1c(-c2ccc(C[C@H](NC(=O)c3c(F)cc(N[C@H](C)C(F)(F)F)cc3F)C(=O)O)c3cccnc23)c(=O)n(C)c2ccccc12` [Example 156] stands 0.3 nM.
